Like-named read-outs stand apart in the source and are kept apart here.
What was measured:
[1] = test system: Key Broadleaf Weed and Crop Species; experiment: Post-Emergent Test II: postemergent herbicidal activity, visual rating after 14 d (Table 7); type: in vivo; settings: post-emergence, 336 h; for pest or weed control at 35 g/ha: 35 g ai/ha; for pest or weed control at 70 g/ha: 70 g ai/ha; for pest or weed control at 140 g/ha: 140 g ai/ha
In short: (§1)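 Visual scoring at 14 d, 0 (no injury) to 100 (complete kill), relative to untreated plants. Postemergent overhead track-sprayer application, 187 L/ha, at a top rate plus serial ½×–1/16× rates, to plants grown 7–21 d at about 23–29° C day under a 15 h photoperiod, then subirrigated.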

[2] = test system: Key Grass and Sedge Weeds as well as Grass Crops; experiment: Post-Emergent Test II: postemergent herbicidal activity, visual rating after 14 d (Table 8); type: in vivo; settings: post-emergence, 336 h; for pest or weed control at 35 g/ha: 35 g ai/ha; for pest or weed control at 70 g/ha: 70 g ai/ha; for pest or weed control at 140 g/ha: 140 g ai/ha
In short: as §1

[3] = lambsquarters (Chenopodium album), read-out: Visual Growth Reduction (%) 14 Days After Application CHEAL
[4] = oilseed rape, canola (Brassica napus), read-out: Visual Growth Reduction (%) 14 Days After Application BRSNN
[5] = redroot pigweed (Amaranthus retroflexus), read-out: Visual Growth Reduction (%) 14 Days After Application AMARE
[6] = sunflower (Helianthus annuus), read-out: Visual Growth Reduction (%) 14 Days After Application HELAN
[7] = velvetleaf (Abutilon theophrasti), read-out: Visual Growth Reduction (%) 14 Days After Application ABUTH
[8] = wild poinsettia (Euphorbia heterophylla), read-out: Visual Growth Reduction (%) 14 Days After Application EPHHL
[9] = barnyardgrass (Echinochloa crus-galli), read-out: Visual Growth Reduction (%) 14 Days After Application ECHCG
[10] = giant foxtail (Setaria faberi), read-out: Visual Growth Reduction (%) 14 Days After Application SETFA
[11] = maize, corn (Zea mays), read-out: Visual Growth Reduction (%) 14 Days After Application ZEAMX
[12] = rice (Oryza sativa), read-out: Visual Growth Reduction (%) 14 Days After Application ORYSA
[13] = wheat, spring (Triticum aestivum), read-out: Visual Growth Reduction (%) 14 Days After Application TRZAS
[14] = yellow nutsedge (Cyperus esculentus), read-out: Visual Growth Reduction (%) 14 Days After Application CYPES

COC(=O)c1nc(-c2cc3c(cc2F)OC(F)(F)O3)nc(N)c1OC [Compound 64]
pest or weed control at 35 g/ha [1, 3]: 0 to 29%
pest or weed control at 70 g/ha [1, 3]: 0 to 29%
pest or weed control at 140 g/ha [1, 3]: 0 to 29%
pest or weed control at 35 g/ha [1, 4]: 0 to 29%
pest or weed control at 70 g/ha [1, 4]: 0 to 29%
pest or weed control at 140 g/ha [1, 4]: 0 to 29%
pest or weed control at 35 g/ha [1, 5]: 0 to 29%
pest or weed control at 70 g/ha [1, 5]: 0 to 29%
pest or weed control at 140 g/ha [1, 5]: 0 to 29%
pest or weed control at 35 g/ha [1, 6]: 0 to 29%
pest or weed control at 70 g/ha [1, 6]: 60 to 74%
pest or weed control at 140 g/ha [1, 6]: 75 to 84%
pest or weed control at 35 g/ha [1, 7]: 0 to 29%
pest or weed control at 70 g/ha [1, 7]: 0 to 29%
pest or weed control at 140 g/ha [1, 7]: 0 to 29%
pest or weed control at 35 g/ha [1, 8]: 75 to 84%
pest or weed control at 70 g/ha [1, 8]: 85 to 94%
pest or weed control at 140 g/ha [1, 8]: 95 to 100%
pest or weed control at 35 g/ha [2, 9]: 0 to 29%
pest or weed control at 70 g/ha [2, 9]: 45 to 59%
pest or weed control at 140 g/ha [2, 9]: 75 to 84%
pest or weed control at 35 g/ha [2, 10]: 0 to 29%
pest or weed control at 70 g/ha [2, 10]: 45 to 59%
pest or weed control at 140 g/ha [2, 10]: 75 to 84%
pest or weed control at 35 g/ha [2, 11]: 30 to 44%
pest or weed control at 70 g/ha [2, 11]: 45 to 59%
pest or weed control at 140 g/ha [2, 11]: 75 to 84%
pest or weed control at 35 g/ha [2, 12]: 0 to 29%
pest or weed control at 70 g/ha [2, 12]: 0 to 29%
pest or weed control at 140 g/ha [2, 12]: 0 to 29%
pest or weed control at 35 g/ha [2, 13]: 0 to 29%
pest or weed control at 70 g/ha [2, 13]: 30 to 44%
pest or weed control at 140 g/ha [2, 13]: 30 to 44%
pest or weed control at 35 g/ha [2, 14]: 30 to 44%
pest or weed control at 70 g/ha [2, 14]: 60 to 74%
pest or weed control at 140 g/ha [2, 14]: 85 to 94%

Nc1cc(-c2cc3c(cc2F)OC(F)(F)O3)nc(C(=O)O)c1Cl [Compound 42]
pest or weed control at 35 g/ha [1, 3]: 85 to 94%
pest or weed control at 70 g/ha [1, 3]: 85 to 94%
pest or weed control at 140 g/ha [1, 3]: 85 to 94%
pest or weed control at 35 g/ha [1, 4]: 95 to 100%
pest or weed control at 70 g/ha [1, 4]: 95 to 100%
pest or weed control at 140 g/ha [1, 4]: 95 to 100%
pest or weed control at 35 g/ha [1, 5]: 95 to 100%
pest or weed control at 70 g/ha [1, 5]: 95 to 100%
pest or weed control at 140 g/ha [1, 5]: 95 to 100%
pest or weed control at 35 g/ha [1, 6]: 45 to 59%
pest or weed control at 70 g/ha [1, 6]: 60 to 74%
pest or weed control at 140 g/ha [1, 6]: 75 to 84%
pest or weed control at 35 g/ha [1, 7]: 85 to 94%
pest or weed control at 70 g/ha [1, 7]: 85 to 94%
pest or weed control at 140 g/ha [1, 7]: 85 to 94%
pest or weed control at 35 g/ha [1, 8]: 95 to 100%
pest or weed control at 70 g/ha [1, 8]: 95 to 100%
pest or weed control at 140 g/ha [1, 8]: 95 to 100%
pest or weed control at 35 g/ha [2, 9]: 95 to 100%
pest or weed control at 70 g/ha [2, 9]: 95 to 100%
pest or weed control at 140 g/ha [2, 9]: 95 to 100%
pest or weed control at 35 g/ha [2, 10]: 60 to 74%
pest or weed control at 70 g/ha [2, 10]: 75 to 84%
pest or weed control at 140 g/ha [2, 10]: 75 to 84%
pest or weed control at 35 g/ha [2, 11]: 60 to 74%
pest or weed control at 70 g/ha [2, 11]: 75 to 84%
pest or weed control at 140 g/ha [2, 11]: 75 to 84%
pest or weed control at 35 g/ha [2, 12]: 30 to 44%
pest or weed control at 70 g/ha [2, 12]: 30 to 44%
pest or weed control at 140 g/ha [2, 12]: 30 to 44%
pest or weed control at 35 g/ha [2, 13]: 60 to 74%
pest or weed control at 70 g/ha [2, 13]: 60 to 74%
pest or weed control at 140 g/ha [2, 13]: 60 to 74%
pest or weed control at 35 g/ha [2, 14]: 95 to 100%
pest or weed control at 70 g/ha [2, 14]: 95 to 100%
pest or weed control at 140 g/ha [2, 14]: 95 to 100%

COC(=O)c1nc(-c2c(F)cc3c(c2F)OC(F)(F)O3)cc(N)c1Cl [Compound 46]
pest or weed control at 35 g/ha [1, 3]: 95 to 100%
pest or weed control at 70 g/ha [1, 3]: 95 to 100%
pest or weed control at 140 g/ha [1, 3]: 95 to 100%
pest or weed control at 35 g/ha [1, 4]: 95 to 100%
pest or weed control at 70 g/ha [1, 4]: 95 to 100%
pest or weed control at 140 g/ha [1, 4]: 95 to 100%
pest or weed control at 35 g/ha [1, 5]: 95 to 100%
pest or weed control at 70 g/ha [1, 5]: 95 to 100%
pest or weed control at 140 g/ha [1, 5]: 95 to 100%
pest or weed control at 35 g/ha [1, 6]: 0 to 29%
pest or weed control at 70 g/ha [1, 6]: 30 to 44%
pest or weed control at 140 g/ha [1, 6]: 60 to 74%
pest or weed control at 35 g/ha [1, 7]: 85 to 94%
pest or weed control at 70 g/ha [1, 7]: 95 to 100%
pest or weed control at 140 g/ha [1, 7]: 95 to 100%
pest or weed control at 35 g/ha [1, 8]: 30 to 44%
pest or weed control at 70 g/ha [1, 8]: 60 to 74%
pest or weed control at 140 g/ha [1, 8]: 85 to 94%
pest or weed control at 35 g/ha [2, 9]: 45 to 59%
pest or weed control at 70 g/ha [2, 9]: 60 to 74%
pest or weed control at 140 g/ha [2, 9]: 85 to 94%
pest or weed control at 35 g/ha [2, 10]: 0 to 29%
pest or weed control at 70 g/ha [2, 10]: 0 to 29%
pest or weed control at 140 g/ha [2, 10]: 0 to 29%
pest or weed control at 35 g/ha [2, 11]: 0 to 29%
pest or weed control at 70 g/ha [2, 11]: 45 to 59%
pest or weed control at 140 g/ha [2, 11]: 75 to 84%
pest or weed control at 35 g/ha [2, 12]: 0 to 29%
pest or weed control at 70 g/ha [2, 12]: 0 to 29%
pest or weed control at 140 g/ha [2, 12]: 0 to 29%
pest or weed control at 35 g/ha [2, 13]: 0 to 29%
pest or weed control at 70 g/ha [2, 13]: 30 to 44%
pest or weed control at 140 g/ha [2, 13]: 45 to 59%
pest or weed control at 35 g/ha [2, 14]: 95 to 100%
pest or weed control at 70 g/ha [2, 14]: 95 to 100%
pest or weed control at 140 g/ha [2, 14]: 95 to 100%

COC(=O)c1nc(-c2cc3c(cc2F)OC(F)(F)O3)c(F)c(N)c1Cl [Compound 9]
pest or weed control at 35 g/ha [1, 3]: 85 to 94%
pest or weed control at 70 g/ha [1, 3]: 85 to 94%
pest or weed control at 140 g/ha [1, 3]: 85 to 94%
pest or weed control at 35 g/ha [1, 4]: 75 to 84%
pest or weed control at 70 g/ha [1, 4]: 85 to 94%
pest or weed control at 140 g/ha [1, 4]: 95 to 100%
pest or weed control at 35 g/ha [1, 5]: 0 to 29%
pest or weed control at 70 g/ha [1, 5]: 0 to 29%
pest or weed control at 140 g/ha [1, 5]: 0 to 29%
pest or weed control at 35 g/ha [1, 6]: 85 to 94%
pest or weed control at 70 g/ha [1, 6]: 85 to 94%
pest or weed control at 140 g/ha [1, 6]: 95 to 100%
pest or weed control at 35 g/ha [1, 7]: 75 to 84%
pest or weed control at 70 g/ha [1, 7]: 85 to 94%
pest or weed control at 140 g/ha [1, 7]: 95 to 100%
pest or weed control at 35 g/ha [1, 8]: 75 to 84%
pest or weed control at 70 g/ha [1, 8]: 85 to 94%
pest or weed control at 140 g/ha [1, 8]: 85 to 94%
pest or weed control at 35 g/ha [2, 9]: 85 to 94%
pest or weed control at 70 g/ha [2, 9]: 85 to 94%
pest or weed control at 140 g/ha [2, 9]: 95 to 100%
pest or weed control at 35 g/ha [2, 10]: 45 to 59%
pest or weed control at 70 g/ha [2, 10]: 60 to 74%
pest or weed control at 140 g/ha [2, 10]: 75 to 84%
pest or weed control at 35 g/ha [2, 11]: 60 to 74%
pest or weed control at 70 g/ha [2, 11]: 60 to 74%
pest or weed control at 140 g/ha [2, 11]: 75 to 84%
pest or weed control at 35 g/ha [2, 12]: 0 to 29%
pest or weed control at 70 g/ha [2, 12]: 0 to 29%
pest or weed control at 140 g/ha [2, 12]: 0 to 29%
pest or weed control at 35 g/ha [2, 13]: 30 to 44%
pest or weed control at 70 g/ha [2, 13]: 45 to 59%
pest or weed control at 140 g/ha [2, 13]: 60 to 74%
pest or weed control at 35 g/ha [2, 14]: 95 to 100%
pest or weed control at 70 g/ha [2, 14]: 95 to 100%
pest or weed control at 140 g/ha [2, 14]: 95 to 100%
